The values that follow come from PubChem BioAssay AID1549 (Sanford-Burnham Center for Chemical Genomics, 2009).

Activity calls are given as the source filed them. How the calls were made is not given here. Bounds are passed on as bounds.

The assay has as its target Influenza A virus M2 proton channel (A/TW/4845/1999 H1N1). Nature of the assay: NMR binding screen, influenza A virus M2 proton channel, Kd (AID 1549). Particulars: M2 protein.
Take `COc1ccc(C2NC(C(=O)O)CS2)cc1` (configuration not stated): the Kd is > 4 mM (inactive).

As to `O=C(Nc1nccs1)c1cccnc1`, the Kd was > 4 mM (inactive). Regarding `Cc1ccc(CN2CCN(C(=O)C3CCC3)CC2)cc1`, the Kd was > 4 mM (inactive). Then `COc1cc(C(C)=O)ccc1OC(=O)N1CCOCC1`, with > 4 mM (inactive); and `O=C1C2C3C=CC(C3)C2C(=O)N1CCO` (configuration not stated), with > 4 mM (inactive). `O=c1cc(-c2ccc(O)cc2)[nH]c(=S)[nH]1`: the Kd is > 4 mM (inactive).

For `CN1CCC(NC(=O)c2ccccc2[N+](=O)[O-])CC1`, the Kd was > 4 mM (inactive). On to `C/C=C/c1ccc2c(c1)OCO2`, for which the Kd was > 4 mM (inactive).

In the case of `O=C(Nc1cccnc1)c1ccc(Br)s1`, the Kd is > 4 mM (inactive). Consider `Cc1cc(OC(=O)c2ccco2)c([N+](=O)[O-])c(=O)[nH]1`, for which the Kd is > 4 mM (inactive). Consider `Nc1ccc(-c2cnco2)cc1`, for which the Kd was > 4 mM (inactive). For the compound `Cc1cc[n+](-c2nc([O-])sc2C=O)cc1`, the Kd is > 4 mM (inactive). Then `O=C(c1ccco1)N1CCN(c2ccc(Cl)cc2)CC1`, with > 4 mM (inactive); and `O=C(NCc1ccncc1)c1cccc(F)c1`, with > 4 mM (inactive).

With `O=[N+]([O-])c1ccc(/C=N/c2ncn[nH]2)cc1`, the Kd is > 4 mM (inactive).

Turning to `Cc1nn2c(-c3ccncc3)nnc2c2ccccc12`, the Kd is > 4 mM (inactive).

With `N#CC(O[C@@H]1O[C@H](CO[C@@H]2O[C@H](CO)[C@@H](O)[C@H](O)[C@H]2O)[C@@H](O)[C@H](O)[C@H]1O)c1ccccc1` (some centres not stated), the Kd is > 4 mM (inactive).

Consider `CC(=O)O[C@@H]1CC2C(C)(C)[C@H](O)C=C[C@]2(C)C2CC[C@@]3(C)[C@H](c4ccoc4)OC(=O)C4OC43[C@@]21C` (some centres not stated), for which the Kd was > 4 mM (inactive). The figure for `CC1=NCCc2c1[nH]c1cc(O)ccc21` is > 4 mM (inactive). Then `CC1(C)NC(=O)N(CN2CCOCC2)C1=O`, with > 4 mM (inactive); and `Cc1ccc(-c2nnn(CC(=O)O)n2)cc1`, with > 4 mM (inactive). The figure for `O=C1COc2ccccc2C(=O)N1` is > 4 mM (inactive); for `O=C1CCCCCN1CO` it is > 4 mM (inactive). Turning to `COc1ccc2c3c1O[C@H]1C[C@@H](O)C=C[C@@]31CCN(C)C2`, the Kd was > 4 mM (inactive). Take `O=C1c2ccccc2C(=O)N1OCc1ccccc1`: the Kd is > 4 mM (inactive).

In the case of `COCCOc1nc2ccccc2nc1C`, the Kd was > 4 mM (inactive).

In the case of `CC1(C)N=C2C(=N)C=CC=C2N1O`, the Kd was > 4 mM (inactive). Regarding `COCC(=O)/C=C1\Sc2ccccc2N1C`, the Kd is > 4 mM (inactive). For `NC(N)=Nc1nc2ccccc2o1`, the Kd was > 4 mM (inactive).

As for `O=c1nc(N2CCOCC2)nc2n1CCO2`, the Kd is > 4 mM (inactive).

As to `O=C1C2C3C=CC(C3)C2C(=O)N1c1ccccn1` (configuration not stated), the Kd was > 4 mM (inactive). Then `CC(=O)c1c(C)n([O-])c2ccccc2[n+]1=O`, with > 4 mM (inactive). Then `Cc1cc(=O)[nH]c(NCc2cccnc2)n1`, with > 4 mM (inactive).

For `OC1CC2CCC1C2` (configuration not stated), the Kd is > 4 mM (inactive).

For `O=c1[nH]cc(NCc2ccco2)c(=O)[nH]1`, the Kd is > 4 mM (inactive). Then `COc1ccccc1/C=C\C(=O)O`, with > 4 mM (inactive); and `CC1(C)C(=O)[C@@H]2O[C@@H]2[C@@]2(C)C1C[C@@H](O)[C@]1(C)C2CC[C@@]2(C)[C@H](c3ccoc3)OC(=O)C3OC321` (some centres not stated), with > 4 mM (inactive); and `Cc1ccc(N2C(=O)CC(Sc3ncn[nH]3)C2=O)cc1` (configuration not stated), with > 4 mM (inactive). Then `CC(=O)O[C@H]1C[C@@H](OC(C)=O)C(C)(C)C2CC(=O)[C@]3(C)C(CC[C@@]4(C)[C@H](C(=O)O)OC(=O)C5OC543)[C@]21C` (some centres not stated), with > 4 mM (inactive); and `COc1ccc(N2C(=O)CCC2=O)c(OC)c1`, with > 4 mM (inactive). In the case of `O=C(c1ccccc1)c1ccccc1C(=O)N1CCCC1`, the Kd was > 4 mM (inactive).

`OCc1ccc(-c2ccccn2)s1`: the Kd is > 4 mM (inactive). Then `Cc1ccc(-n2nnnc2SCC(N)=O)c(C)c1`, with > 4 mM (inactive).

Take `COc1ccccc1NC(N)=S`: the Kd is > 4 mM (inactive). As to `Cc1ccc(C(=O)N2CCOCC2)cc1Cl`, the Kd was > 4 mM (inactive).

Take `COc1cc2nc(-c3cccs3)oc(=O)c2cc1OC`: the Kd was > 4 mM (inactive). On to `CC1(C)CN=C(Nc2nc3ccccc3s2)S1`, for which the Kd was > 4 mM (inactive). Consider `OC12C=CC(CC1)CC2`, for which the Kd was > 4 mM (inactive).

For `O=C1c2cccnc2C(=O)N1Cc1ccco1`, the Kd is > 4 mM (inactive). `NC1=NC(=O)/C(=C/c2cccs2)S1`: the Kd is > 4 mM (inactive).

`O=C(c1ccc(Cl)s1)N1CCOCC1`: the Kd is > 4 mM (inactive).

On to `Nc1ccc(Oc2ccccc2)nc1`, for which the Kd is > 4 mM (inactive). As to `COC(=O)C1=C(C)N(Cc2ccco2)C(=O)C1`, the Kd is > 4 mM (inactive). `COc1ccc(/C=C2\SC(N)=NC2=O)cc1`: the Kd was > 4 mM (inactive). Then `O=C(O)CSc1cccc2cccnc12`, with > 4 mM (inactive).

For `Cc1nnc(N2CCN(Cc3ccccc3)CC2)[nH]c1=O`, the Kd was > 4 mM (inactive). `N/N=C1\CCCc2c1no[n+]2[O-]`: the Kd is > 4 mM (inactive). With `COc1cc(C(=O)O[C@H]2CC[C@@]3(C)[C@@H]4CC[C@H]5[C@]6(O)C[C@H](O)[C@@]7(O)[C@@H](CN8C[C@@H](C)CC[C@H]8[C@@]7(C)O)[C@]6(O)C[C@@]53OC24O)cc(OC)c1OC`, the Kd is > 4 mM (inactive). Consider `CC(=O)Nc1cccc(N(C)S(C)(=O)=O)c1`, for which the Kd is > 4 mM (inactive). Then `Nc1ccc(-n2cccc2)cc1`, with > 4 mM (inactive); and `Cc1ccc(N2CCN(C(=O)c3ccccc3)CC2)c(C)c1`, with > 4 mM (inactive).

Turning to `NCc1ccc(CN2CCOCC2)cc1`, the Kd was > 4 mM (inactive). Then `O=C(O)c1cccnc1Oc1ccccc1`, with > 4 mM (inactive). On to `O=c1c(-c2ccccc2)coc2cc(O)cc(O)c12`, for which the Kd is > 4 mM (inactive). The figure for `O=C(O)c1cc(F)cc2c1OCOC2` is > 4 mM (inactive). The figure for `CCNC(=S)N1CCCC(C(N)=O)C1` (configuration not stated) is > 4 mM (inactive). Consider `COC(=O)c1cncc(C(=O)OC)c1`, for which the Kd is > 4 mM (inactive). For the compound `CC(C)NC(=O)c1nc2ccccc2s1`, the Kd was > 4 mM (inactive).

On to `CSc1ccn(CCC(=O)O)c(=O)n1`, for which the Kd was > 4 mM (inactive). Then `Nc1ccc2c(c1)N1CCN=C1S2`, with > 4 mM (inactive); and `O=C(NCc1ccco1)c1ccc(Br)s1`, with > 4 mM (inactive). Then `O=C(O[C@@H]1Cc2c(O)cc(O)cc2O[C@@H]1c1ccc(O)c(O)c1)c1cc(O)c(O)c(O)c1`, with > 4 mM (inactive); and `CC(=O)O[C@@H]1CC2C(C)(C)C(=O)C=C[C@]2(C)C2CC[C@]3(C)C(=CC(=O)O[C@H]3c3ccoc3)[C@@]21C` (some centres not stated), with > 4 mM (inactive).

For the compound `CC(C)=CC(=O)Nc1ccc(S(N)(=O)=O)cc1`, the Kd was > 4 mM (inactive). The figure for `NC(=O)c1ccsc1NC(=O)C1=COCCO1` is > 4 mM (inactive); for `O=C(CSc1ccc(Cl)cc1)N1CCOCC1` it is > 4 mM (inactive).

For `CC(=O)CC1CCCCN1` (configuration not stated), the Kd is > 4 mM (inactive). With `NC(=O)CC1Sc2ccccc2NC1=O` (configuration not stated), the Kd is > 4 mM (inactive).

With `S=C(c1ccc(N2CCOCC2)cc1)N1CCCCC1`, the Kd is > 4 mM (inactive). The figure for `O=C(O)CS(=O)(=O)c1ccccc1` is > 4 mM (inactive); for `CN1C2C[C@H](OC(=O)[C@H](CO)c3ccccc3)C[C@H]1[C@@H](O)C2` it is > 4 mM (inactive); for `O=C(O)CNc1ncnc2nc[nH]c12` it is > 4 mM (inactive).

Regarding `Cc1nc2cc(NC(=O)Nc3nccs3)ccc2n1C`, the Kd is > 4 mM (inactive).

Take `CC1CCc2cc(F)ccc2N1C(=O)c1ccc(=O)[nH]n1` (configuration not stated): the Kd is > 4 mM (inactive). Take `COC(=O)C[C@@H]1C2(C)C(=O)[C@@H](CC3=C4CC(=O)O[C@@H](c5ccoc5)[C@]4(C)CCC32)[C@H](OC(C)=O)C1(C)C` (some centres not stated): the Kd is > 4 mM (inactive). For the compound `Nc1nc(-c2cccnc2)nn1C(=O)Cc1ccccc1`, the Kd is > 4 mM (inactive). The figure for `CC(C)NC(=O)c1cc(-n2cnnc2)ccc1Cl` is > 4 mM (inactive). Regarding `CCC(CCC(C)[C@H]1CCC2C3CC=C4C[C@@H](O)CC[C@]4(C)C3CC[C@@]21C)C(C)C` (some centres not stated), the Kd is > 4 mM (inactive). Turning to `O=C(O)C1CCN(C(=O)c2cccs2)CC1`, the Kd was > 4 mM (inactive).

On to `NN1C(=O)CSC1=Nc1ccccc1`, for which the Kd is > 4 mM (inactive). The figure for `CCn1nnc(NC(=O)c2ccccc2Br)n1` is > 4 mM (inactive). Then `O=C(O)c1csc(-c2cccs2)n1`, with > 4 mM (inactive); and `Cn1cccc1C=C1C(=O)NC(=S)NC1=O`, with > 4 mM (inactive); and `Cc1csc(CCc2nc(C)cs2)n1`, with > 4 mM (inactive). Regarding `CC(N)C(=O)c1ccco1` (configuration not stated), the Kd is > 4 mM (inactive). Then `Cc1cc(=O)oc2cc(O)c(O)cc12`, with > 4 mM (inactive); and `COc1cccc(-c2cc(=O)c3cc(OC)ccc3o2)c1`, with > 4 mM (inactive); and `Nc1nc(SCc2ccc3c(c2)OCCO3)n[nH]1`, with > 4 mM (inactive).

With `CC1(C)Cc2c(c(-c3ccco3)[nH]c(=O)c2C#N)CO1`, the Kd is > 4 mM (inactive). Turning to `Cc1ccc2c(c1)=C(c1sc(N)nc1O)C(=O)N=2`, the Kd was > 4 mM (inactive). On to `Cc1nc(N)sc1C(=O)Nc1nccs1`, for which the Kd was > 4 mM (inactive).

Take `Cc1ccc(C2NS(=O)(=O)N=C2N)cc1` (configuration not stated): the Kd is > 4 mM (inactive).
